The values below come from patent publication US7517874B2 (priority 2007, dated 2009).

In experiment [1] the target is human CB1 receptor (hCB1) (Homo sapiens, UniProt P21554). Nature of the experiment: cell-based. It is filed as cell-based. The method in brief:
(§1)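 Agonism or inverse agonism was assessed as change in intracellular cAMP in CHO-K1 cells expressing human CB1 or rat CB2 (genomic DNA, pcDNA3.1).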

The target of experiment [2] is T1, rat CB2 receptor (rCB2) (Rattus norvegicus, UniProt Q9QZN9).
T1 sequence (Q9QZN9 1-360): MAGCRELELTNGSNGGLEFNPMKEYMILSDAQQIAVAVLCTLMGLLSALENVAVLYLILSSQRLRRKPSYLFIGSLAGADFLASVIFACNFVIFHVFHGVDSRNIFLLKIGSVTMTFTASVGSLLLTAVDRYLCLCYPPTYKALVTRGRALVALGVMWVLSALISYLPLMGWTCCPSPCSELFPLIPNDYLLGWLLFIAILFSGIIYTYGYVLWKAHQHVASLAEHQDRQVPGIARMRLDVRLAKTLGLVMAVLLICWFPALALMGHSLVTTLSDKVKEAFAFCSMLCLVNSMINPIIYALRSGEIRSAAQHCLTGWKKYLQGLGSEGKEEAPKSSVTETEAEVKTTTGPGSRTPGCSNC
The experiment in a line: cell-based. It is filed as cell-based. The conditions noted are these: for +/− RCB2: agonist or inverse agonist at rCB2. In short, it runs like this:
as §1

Setting [3] is: groups >100 nM-10 μM and >10 μM, cAMP, CHO-K1 hCB1, read-out: EC50 HCB1.
Setting [4] is: groups >100 nM-10 μM and >10 μM, cAMP, CHO-K1 rCB2, read-out: EC50 RCB2.

Like-named read-outs stand apart in the source and are kept apart here. Some results are limits rather than exact numbers.

Sequence of human CB1 receptor (hCB1) (P21554 whole entry): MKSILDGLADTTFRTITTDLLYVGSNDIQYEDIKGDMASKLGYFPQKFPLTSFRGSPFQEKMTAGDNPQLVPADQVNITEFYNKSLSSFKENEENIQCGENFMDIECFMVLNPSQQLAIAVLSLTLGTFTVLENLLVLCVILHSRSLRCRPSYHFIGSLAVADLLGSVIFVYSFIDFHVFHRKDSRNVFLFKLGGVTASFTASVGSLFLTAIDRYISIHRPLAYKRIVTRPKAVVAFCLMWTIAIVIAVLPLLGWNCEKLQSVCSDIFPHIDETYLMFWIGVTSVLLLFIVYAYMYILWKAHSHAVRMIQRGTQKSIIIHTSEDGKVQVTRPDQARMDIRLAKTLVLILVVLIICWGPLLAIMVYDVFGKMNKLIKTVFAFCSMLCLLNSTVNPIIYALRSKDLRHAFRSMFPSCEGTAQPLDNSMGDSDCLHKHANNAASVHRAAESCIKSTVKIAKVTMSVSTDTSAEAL

In general, EC50 refers to the midpoint of the concentration-response curve. In experiment [1], `CNC(=O)[C@@H](NC(=O)c1nc(-c2ccccc2)n2c1CN(C(=O)CC(C)(C)C)CC2)C(C)(C)C` [Compound 188, (S)-N-(3,3-dimethyl-1-(methylamino)-1-oxobutan-2-yl)-7-(3,3-dimethylbutanoyl)-3-phenyl-5,6,7,8-tetrahydroimidazo[1,5-a]pyrazine-1-carboxamide] displayed an EC50 above 10000 nM. Further, the “+/− RCB2” value in experiment [2] is “−”.
On the same counts, the results for `CNC(=O)[C@@H](NC(=O)c1nc(-c2cc(Cl)c(F)cc2F)n2c1CN(C)CCC2)C(C)(C)C` [Compound 370, (S)-3-(5-chloro-2,4-difluorophenyl)-N-(3,3-dimethyl-1-(methylamino)-1-oxobutan-2-yl)-8-methyl-6,7,8,9-tetrahydro-5H-imidazo[1,5-a][1,4]diazepine-1-carboxamide] are above 10000 nM and “+”.
On to `CNC(=O)c1ccc(NC(=O)c2nc(-c3ccc(Cl)cc3F)n3c2CN(C)CC3)cc1` [Compound 218], for which the EC50 in experiment [1] (setting [3]) and in experiment [2] (setting [4]) was above 10000 nM throughout.
`CNC(=O)[C@@H](NC(=O)c1nc(-c2ccccc2)n2c1CN(C(C)C)CC2)C(C)(C)C` [Compound 85, (S)-N-(3,3-dimethyl-1-(methylamino)-1-oxobutan-2-yl)-7-isopropyl-3-phenyl-5,6,7,8-tetrahydroimidazo[1,5-a]pyrazine-1-carboxamide] came in with an EC50 in experiment [1] above 10000 nM. Further, the “+/− RCB2” value in experiment [2] was “−”.
With `CN1CCn2c(-c3ccccc3)nc(C(=O)N[C@H](C(=O)N(C)C)C(C)(C)C)c2C1` [Compound 79, (S)-N-(1-(dimethylamino)-3,3-dimethyl-1-oxobutan-2-yl)-7-methyl-3-phenyl-5,6,7,8-tetrahydroimidazo[1,5-a]pyrazine-1-carboxamide], in experiment [1], the EC50 is above 10000 nM. For the same compound, the “+/− RCB2” value in experiment [2] is reported as “−”.
On the same counts, the results for `CNC(=O)[C@@H](NC(=O)c1nc(-c2ccc(Cl)cc2F)n2c1CN(CC(C)C)CCC2)C(C)(C)C` [Compound 322, (S)-3-(4-chloro-2-fluorophenyl)-N-(3,3-dimethyl-1-(methylamino)-1-oxobutan-2-yl)-8-isobutyl-6,7,8,9-tetrahydro-5H-imidazo[1,5-a][1,4]diazepine-1-carboxamide] are above 10000 nM and “−”.
Taken in the same sequence, the figures for `CNC(=O)[C@@H](NC(=O)c1nc(-c2ccoc2)n2c1CN(C)CCC2)C(C)(C)C` [Compound 440, (S)-N-(3,3-dimethyl-1-(methylamino)-1-oxobutan-2-yl)-3-(furan-3-yl)-8-methyl-6,7,8,9-tetrahydro-5H-imidazo[1,5-a][1,4]diazepine-1-carboxamide] were above 10000 nM and “+”.
In turn, `CCCC/C=C/c1nc(C(=O)N[C@H](C(=O)NC)C(C)(C)C)c2n1CCCN(C)C2` [Compound 400, (S,E)-N-(3,3-dimethyl-1-(methylamino)-1-oxobutan-2-yl)-3-(hex-1-enyl)-8-methyl-6,7,8,9-tetrahydro-5H-imidazo[1,5-a][1,4]diazepine-1-carboxamide] registered a concentration for a half-maximal effect (EC50) in experiment [1] above 10000 nM. Besides, in experiment [2], the “+/− RCB2” value is given as “+”.
For `CN1CCCn2c(-c3cc(Cl)c(F)cc3F)nc(C(=O)N[C@H](C(N)=O)C(C)(C)C)c2C1` [Compound 580, (S)-N-(1-amino-3,3-dimethyl-1-oxobutan-2-yl)-3-(5-chloro-2,4-difluorophenyl)-8-methyl-6,7,8,9-tetrahydro-5H-imidazo[1,5-a][1,4]diazepine-1-carboxamide], the “+/− HCB1” value in experiment [1] (agonist or inverse agonist at hCB1) is “+”. For the same compound, the “+/− RCB2” value in experiment [2] was “+”.
On to `CC(C)CN1CCn2c(-c3ccccc3)nc(C(=O)NC3CCCCC3)c2C1` [Compound 165, N-cyclohexyl-7-isobutyl-3-phenyl-5,6,7,8-tetrahydroimidazo[1,5-a]pyrazine-1-carboxamide], for which, in experiment [1], the concentration giving a half-maximal response (EC50) is above 10000 nM. Moreover, the “+/− RCB2” value in experiment [2] is reported as “−”.
On the same counts, the results for `CN1CCCn2c(-c3ccccc3)nc(C(=O)N[C@H](C(=O)N(C)C)C(C)(C)C)c2C1` [Compound 557, (S)-N-(1-(dimethylamino)-3,3-dimethyl-1-oxobutan-2-yl)-8-methyl-3-phenyl-6,7,8,9-tetrahydro-5H-imidazo[1,5-a][1,4]diazepine-1-carboxamide] are above 10000 nM and “+”.
Compound `CNC(=O)[C@@H](NC(=O)c1nc(/C=C/CN2CCCC2)n2c1CN(C)CCC2)C(C)(C)C` [Compound 511, (S,E)-N-(3,3-dimethyl-1-(methylamino)-1-oxobutan-2-yl)-8-methyl-3-(3-(pyrrolidin-1-yl)prop-1-enyl)-6,7,8,9-tetrahydro-5H-imidazo[1,5-a][1,4]diazepine-1-carboxamide] had an EC50 in experiment [1] above 10000 nM. Also, the “+/− RCB2” value in experiment [2] is given as “+”.
Turning to `COC(=O)c1cccc(CNC(=O)c2nc(-c3ccc(Cl)cc3F)n3c2CN(C)CC3)c1` [Compound 224, methyl 3-((3-(4-chloro-2-fluorophenyl)-7-methyl-5,6,7,8-tetrahydroimidazo[1,5-a]pyrazine-1-carboxamido)methyl)benzoate], the EC50 in experiment [1] (setting [3]) was above 10000 nM. Further, the “+/− RCB2” value in experiment [2] is listed as “−”.
Consider `CNC(=O)[C@@H](NC(=O)c1nc(-c2ccc(-c3ccccc3)cc2)n2c1CN(C)CC2)C(C)(C)C` [Compound 265, (S)-3-(biphenyl-4-yl)-N-(3,3-dimethyl-1-(methylamino)-1-oxobutan-2-yl)-7-methyl-5,6,7,8-tetrahydroimidazo[1,5-a]pyrazine-1-carboxamide], for which the EC50 in experiment [1] was above 10000 nM. In addition, the “+/− RCB2” value in experiment [2] is recorded as “−”.
For the compound `CNC(=O)[C@@H](NC(=O)c1nc(-c2ccc3ccccc3c2)n2c1CN(C)CCC2)C(C)(C)C` [Compound 380, (S)-N-(3,3-dimethyl-1-(methylamino)-1-oxobutan-2-yl)-8-methyl-3-(naphthalen-2-yl)-6,7,8,9-tetrahydro-5H-imidazo[1,5-a][1,4]diazepine-1-carboxamide], in experiment [1], the concentration giving a half-maximal response (EC50) was above 10000 nM. The “+/− RCB2” value in experiment [2] is reported as “−”.
The compound `COC(=O)[C@@H](NC(=O)c1nc(-c2ccc(C)cc2F)n2c1CN(CC1CC1)CCC2)C(C)(C)C` [Compound 470, (S)-methyl 2-(8-(cyclopropylmethyl)-3-(2-fluoro-4-methylphenyl)-6,7,8,9-tetrahydro-5H-imidazo[1,5-a][1,4]diazepine-1-carboxamido)-3,3-dimethylbutanoate] gave a concentration for a half-maximal effect (EC50) in experiment [1] above 10000 nM. The “+/− RCB2” value in experiment [2] is reported as “−”.
Turning to `CNC(=O)[C@@H](NC(=O)c1nc(/C=C/c2ccccc2)n2c1CN(C)CCC2)C(C)(C)C` [Compound 336, (S,E)-N-(3,3-dimethyl-1-(methylamino)-1-oxobutan-2-yl)-8-methyl-3-styryl-6,7,8,9-tetrahydro-5H-imidazo[1,5-a][1,4]diazepine-1-carboxamide], the EC50 in experiment [1] was above 10000 nM. Moreover, the “+/− RCB2” value in experiment [2] is “−”.
Taken in the same sequence, the figures for `Cc1noc([C@@H](NC(=O)c2nc(-c3ccccc3)n3c2CN(C)CCC3)C(C)(C)C)n1` [Compound 521, (S)-N-(2,2-dimethyl-1-(3-methyl-1,2,4-oxadiazol-5-yl)propyl)-8-methyl-3-phenyl-6,7,8,9-tetrahydro-5H-imidazo[1,5-a][1,4]diazepine-1-carboxamide] were above 10000 nM and “+”.
For `O=C(NC1CCCCC1)c1nc(-c2ccccc2)n2c1CNCC2` [Compound 47, N-cyclohexyl-3-phenyl-5,6,7,8-tetrahydroimidazo[1,5-a]pyrazine-1-carboxamide], the EC50 in experiment [1] (setting [3]) and in experiment [2] (setting [4]) was above 10000 nM each time.
As to `CC(C)(C)C(=O)N1CCn2c(-c3ccccc3)nc(C(=O)NC3CCCCC3)c2C1` [Compound 137, N-cyclohexyl-3-phenyl-7-pivaloyl-5,6,7,8-tetrahydroimidazo[1,5-a]pyrazine-1-carboxamide], in experiment [1] (setting [3]), the EC50 is above 10000 nM. Further, the “+/− RCB2” value in experiment [2] is “−”.
As for `CNC(=O)[C@@H](NC(=O)c1nc(-c2ccc(-c3ccccc3)c(F)c2)n2c1CN(C)CCC2)C(C)(C)C` [Compound 419, (S)-N-(3,3-dimethyl-1-(methylamino)-1-oxobutan-2-yl)-3-(2-fluorobiphenyl-4-yl)-8-methyl-6,7,8,9-tetrahydro-5H-imidazo[1,5-a][1,4]diazepine-1-carboxamide], the EC50 in experiment [1] and in experiment [2] was above 10000 nM each time.
In the case of `C[C@@H](NC(=O)c1nc(-c2ccccc2)n2c1CN(C(=O)OC(C)(C)C)CC2)C1CCCCC1` [Compound 37, (R)-tert-butyl 1-(1-cyclohexylethylcarbamoyl)-3-phenyl-5,6-dihydroimidazo[1,5-a]pyrazine-7(8H)-carboxylate], in experiment [1], the EC50 is above 10000 nM. The “+/− RCB2” value in experiment [2] is listed as “−”.
`CN1CCn2c(-c3ccc(Cl)cc3F)nc(C(=O)N3CCC(C(N)=O)(N4CCOCC4)CC3)c2C1` [Compound 225]: the EC50 in experiment [1] and in experiment [2] was above 10000 nM in each case.
In the case of `CNC(=O)[C@@H](NC(=O)c1nc(/C=C/C(C)(C)C)n2c1CN(C)CC2)C(C)(C)C` [Compound 263, (S,E)-N-(3,3-dimethyl-1-(methylamino)-1-oxobutan-2-yl)-3-(3,3-dimethylbut-1-enyl)-7-methyl-5,6,7,8-tetrahydroimidazo[1,5-a]pyrazine-1-carboxamide], in experiment [1], the EC50 was above 10000 nM. In experiment [2], the “+/− RCB2” value was “+”.
